Measurements as given in patent US20020137731A1, “Combination of radiation and vitamin D3 analogs for the treatment of cancer” (priority 2000, published 2002).
Values joined by “and” are separate entries in the source; they are usually repeats but may differ in a detail not shown here. Identical values can stand only once. Like-named read-outs stand apart in the source and are kept apart here.

Columns and labels:
MCF-7 cells [1] = experiment: Viable cell number by trypan blue exclusion; assay type: cell-based, human
Procedure: (§1) All cell lines were grown from frozen stocks in basal RPMI 1640 medium supplemented with 10% fetal calf serum, 2 mM L-glutamine, penicillin/streptomycin at 37° C. under a humidified, 5% CO2 atmosphere. All studies were conducted using approximately 10^4 cells/cm^2 at day 0 with the use of time-equivalent and concentration-equivalent controls. The results shown are averages of two to three studies.
The response of cells treated with adriamycin (1 μM) for 2 hr and irradiation (10 Gy) was assessed 72 hr after treatment by trypan blue exclusion. The response of cells treated with ILX 23-7553 (200 nM) for 72 hr was evaluated 72 hr after removal of ILX 23-7553. To evaluate the combined effects of adriamycin or irradiation with ILX 23-7553 (200 nM), cells were treated with ILX 23-7553 for 72 hr prior to adriamycin (1 μM) or irradiation (10 Gy) and allowed to grow for an additional 72 hr. Cells were harvested using trypsin, stained with 0.4% trypan blue and trypan blue negative cells were counted under phase contrast microscopy.

MCF-7 cells [2] = experiment: Clonogenic analysis (colony forming assay) with statistical model of additivity; assay type: cell-based, human; conditions: for Predicted Response Under Additivity (Surviving Fraction): statistical model of additivity
Procedure: as §1
MCF-7 cells were treated with ILX 23-7553 (200 nM), adriamycin or radiation alone and with ILX 23-7553 preceding various doses of adriamycin or radiation. For analysis of additivity, MCF-7 cells were treated with various doses of ILX 23-7553 (0-200 nM) in combination with a single dose of either adriamycin (20 nM) or irradiation (2.5 Gy). Cells were trypsinized immediately following adriamycin or radiation under sterile conditions and plated in triplicate in 6 well cell culture plates at approximately 1000 cells for each condition. After 7-10 days, the cells were fixed with 100% methanol, air-dried for 1-2 hr and stained with […] crystal violet. Groups of 50 or more cells were counted as colonies.
The predicted responses for the colony forming assay were determined using the following model: y=exp(B0+B1x1+B2x2) where y is the predicted response, x1 is either dose of irradiation ([…]) or adriarnycin (nM), x2 is the dose of ILX 23-7553 (nM), B0 is an unknown parameter associated with the intercept, B1 is an unknown parameter associated with the slope of x1 and B2 is an unknown parameter associated with the slope of x2. Parameter estimates were found using a generalized least squares criterion for nonlinear models. A constant variance was assumed across the dose range of all four compounds. The Gauss-Newton iterative algorithm was used in PROC NLIN in SAS (version 6.12) to find parameter estimates. The compare the observed response at each combination point to that predicted under the hypotheses of additivity, a prediction interval was used following Gennings et al. (1997). An overall test for additivity (Radford et al., 1994) was based on testing they hypothesis that the mean response under the hypothesis of additivity is the true mean response. The estimated responses under the hypothesis of additivity were provided by the additivity model. The estimated responses for the true means were provided by the sample means at each mixture group.

MCF-7 cells [3] = experiment: TUNEL assay of DNA fragmentation (apoptotic cell death); assay type: cell-based, human; conditions: for DNA fragmentation indicative of apoptotic cell death: agent alone
Excerpt: The method of Gavrielli et al. (1992) was utilized as an independent assessment of apoptotic cell death in combined cytospins containing both adherent and non-adherent cells. The cells were fixed and the fragmented DNA in cells undergoing apoptosis was detected using the In Situ Cell Death detection Kit (Boehringer-Manheim). In this assay, the fragmented DNA in individual cells was end labeled using fluorescein-dUTP at strand breaks by the enzyme terminal transferase. The slides were then washed, mounted in Vectashield and photographed using a Nikon fluorescent microscope. For quantitation, fluorescent cells were scored positive for DNA fragmentation.

MCF-7 cells [4] = experiment: Cell morphology (Wright-Giemsa stain, light microscopy); assay type: cell-based, human; conditions: for apoptotic cell morphology (dark and shrunken cells): 72 h after exposure; for apoptotic cell morphology: agent alone
Excerpt: Seventy-two hours after adriamycin or irradiation exposure, cells were washed and cytocentrifuged onto microscopic slides. The cells were stained Wright-Giesma stain and photographed under a Nikon light microscope.

MCF-7 cells [5] = conditions: previous work, literature; cited from earlier work
MCF-7 breast tumor cells = conditions: Sundaram and Gewirtz, 1999; Sundaram et al., 2000; cited from earlier work
[6] = ILX 23-7553 pretreatment followed by radiation

C=C1/C(=C\C=C2/CCC[C@]3(C)C([C@H](C)CC#CC(C)(C)O)=CC[C@@H]23)C[C@@H](O)C[C@@H]1O [ILX 23-7553]
cytotoxicity at 0.2 µM (MCF-7 cells [1]; Homo sapiens, MCF7, 72 h, ILX 23-7553 200 nM for 72 h alone, counted 72 h after removal, vs untreated controls, read-out: decrease in viable cell number): 60% | cytotoxicity at 0.2 µM (MCF-7 cells [1]; Homo sapiens, MCF7, ILX 23-7553 200 nM 72 h pretreatment followed by 10 Gy ionizing radiation, counted 72 h after, read-out: decrease in viable cell number): 93% | cytotoxicity at 0.2 µM (MCF-7 cells [1]; Homo sapiens, MCF7, ILX 23-7553 200 nM 72 h pretreatment followed by adriamycin 1 μM, counted 72 h after, read-out: decrease in viable cell number): 97% | decrease in viable cell numbers as compared to ILX 23-7553 alone (MCF-7 cells [1]; [6]): 66% | decrease in viable cell numbers as compared to radiation alone (MCF-7 cells [1]; [6]): 24% | fold decrease in adriamycin dose required to reduce clonogenic survival by 50% (MCF-7 cells [2]; 200 nM ILX 23-7553 pretreatment for 72 h vs adriamycin alone): ~2.5 fold and 2 fold | fold reduction in irradiation dose required to reduce clonogenic survival by 50% (MCF-7 cells [2]; 200 nM ILX 23-7553 pretreatment for 72 h vs irradiation alone): 4 fold | Observed Mean Response (Surviving Fraction) (MCF-7 cells [2]; Adr 1 nM, ILX 200 nM): 0.67 | Predicted Response Under Additivity (Surviving Fraction) (MCF-7 cells [2]; Adr 1 nM, ILX 200 nM): 0.53 | Observed Mean Response (Surviving Fraction) (MCF-7 cells [2]; Adr 5 nM, ILX 200 nM): 0.58 | Predicted Response Under Additivity (Surviving Fraction) (MCF-7 cells [2]; Adr 5 nM, ILX 200 nM): 0.51 | Observed Mean Response (Surviving Fraction) (MCF-7 cells [2]; Adr 10 nM, ILX 200 nM): 0.52 | Predicted Response Under Additivity (Surviving Fraction) (MCF-7 cells [2]; Adr 10 nM, ILX 200 nM): 0.49 | Observed Mean Response (Surviving Fraction) (MCF-7 cells [2]; Adr 20 nM, ILX 50 nM): 0.58 | Predicted Response Under Additivity (Surviving Fraction) (MCF-7 cells [2]; Adr 20 nM, ILX 50 nM): 0.63 | Observed Mean Response (Surviving Fraction) (MCF-7 cells [2]; Adr 20 nM, ILX 100 nM): 0.50 | Predicted Response Under Additivity (Surviving Fraction) (MCF-7 cells [2]; Adr 20 nM, ILX 100 nM): 0.56 | Observed Mean Response (Surviving Fraction) (MCF-7 cells [2]; Adr 20 nM, ILX 200 nM): 0.46 | Predicted Response Under Additivity (Surviving Fraction) (MCF-7 cells [2]; Adr 20 nM, ILX 200 nM): 0.44 | Observed Mean Response (Surviving Fraction) (MCF-7 cells [2]; Adr 100 nM, ILX 200 nM): 0.24 | Predicted Response Under Additivity (Surviving Fraction) (MCF-7 cells [2]; Adr 100 nM, ILX 200 nM): 0.20 | Observed Mean Response (Surviving Fraction) (MCF-7 cells [2]; IR 0.5 Gy, ILX 200 nM): 0.34 | Predicted Response Under Additivity (Surviving Fraction) (MCF-7 cells [2]; IR 0.5 Gy, ILX 200 nM): 0.51 | Observed Mean Response (Surviving Fraction) (MCF-7 cells [2]; IR 1.0 Gy, ILX 200 nM): 0.27 | Predicted Response Under Additivity (Surviving Fraction) (MCF-7 cells [2]; IR 1.0 Gy, ILX 200 nM): 0.41 | Observed Mean Response (Surviving Fraction) (MCF-7 cells [2]; IR 2.5 Gy, ILX 50 nM): 0.23 | Predicted Response Under Additivity (Surviving Fraction) (MCF-7 cells [2]; IR 2.5 Gy, ILX 50 nM): 0.29 | Observed Mean Response (Surviving Fraction) (MCF-7 cells [2]; IR 2.5 Gy, ILX 200 nM): 0.20 | Predicted Response Under Additivity (Surviving Fraction) (MCF-7 cells [2]; IR 2.5 Gy, ILX 200 nM): 0.22 | Observed Mean Response (Surviving Fraction) (MCF-7 cells [2]; IR 5.0 Gy, ILX 200 nM): 0.13 | Predicted Response Under Additivity (Surviving Fraction) (MCF-7 cells [2]; IR 5.0 Gy, ILX 200 nM): 0.08 | dose of irradiation required to produce a 50% decrease in clonogenic survival (MCF-7 cells [2]; after 200 nM ILX 23-7553 pretreatment (irradiation alone: 1 Gy)): 0.25 Gy | type of interaction between ILX 23-7553 and irradiation (additive vs synergistic) (MCF-7 cells [2]; colony forming assays, observed vs predicted surviving fractions, p=0.196): additively | type of interaction between ILX 23-7553 and adriamycin (additive vs synergistic) (MCF-7 cells [2]; colony forming assays, observed vs predicted surviving fractions, p=0.461): additively | percent TUNEL-positive cells (cells with DNA fragmentation) (MCF-7 cells [3]; ILX 23-7553 pretreatment followed by adriamycin): 15% and 14% | percent TUNEL-positive cells (cells with DNA fragmentation) (MCF-7 cells [3]; ILX 23-7553 pretreatment followed by irradiation): 7% | DNA fragmentation indicative of apoptotic cell death (MCF-7 cells [3]): not induced | apoptotic cell morphology (dark and shrunken cells) (MCF-7 cells [4]; ILX 23-7553 in combination with adriamycin): observed | apoptotic cell morphology (dark and shrunken cells) (MCF-7 cells [4]; ILX 23-7553 in combination with irradiation): observed | apoptotic cell morphology (MCF-7 cells [4]): did not produce cells with this apoptotic morphology

COc1cccc2c1C(=O)c1c(O)c3c(c(O)c1C2=O)C[C@@](O)(C(=O)CO)C[C@@H]3O[C@H]1C[C@H](N)[C@H](O)[C@H](C)O1 [adriamycin, reference compound]
cytotoxicity at 1 µM (MCF-7 cells [1]; Homo sapiens, MCF7, adriamycin 1 μM (2 hr acute exposure) alone, counted 72 h after, vs untreated controls, read-out: decrease in viable cell number): 74% | DNA fragmentation indicative of apoptotic cell death (MCF-7 cells [3]): not induced | apoptotic cell morphology (MCF-7 cells [4]): did not produce cells with this apoptotic morphology | induction of apoptotic cell death (MCF-7 cells [5]): neither adriamycin nor irradiation induces apoptotic cell death

C=C1/C(=C\C=C2/CCC[C@]3(C)[C@@H]([C@H](C)/C=C/C=C/C(O)(CC)CC)CC[C@@H]23)C[C@@H](O)C[C@@H]1O [EB 1089]
effect on the response of MCF-7 breast tumor cells to adriamycin and irradiation (MCF-7 breast tumor cells): enhances
